In US20090203708A1, “NOVEL SUBSTITUTED-1-H-QUINAZOLINE-2,4-DIONE DERIVATIVES, PREPARATION METHOD THEREOF AND PHARMACEUTICAL COMPOSITION CONTAINING THE SAME” (Korea Research Institute of Chemical Technology, priority 2006, published 2009):

Assays:
[1] = target: 5-HT7 (human recombinant receptor, CHO-K1) (Homo sapiens, UniProt P34969); experiment: Radioligand binding assay, 5-HT7
[2] = target: T1, D4 (hD4.2 receptor) (Homo sapiens, UniProt P21917, DEL265-296); experiment: Radioligand binding assay, dopamine D4; settings: [3H] YM-09151-2 0.06 nM; read-out: Binding affinity IC50 D4
T1 construct: purchased BioSignal Packard Inc., Montreal, Canada
T1 sequence (P21917 with tags, fused parts or gaps DEL265-296): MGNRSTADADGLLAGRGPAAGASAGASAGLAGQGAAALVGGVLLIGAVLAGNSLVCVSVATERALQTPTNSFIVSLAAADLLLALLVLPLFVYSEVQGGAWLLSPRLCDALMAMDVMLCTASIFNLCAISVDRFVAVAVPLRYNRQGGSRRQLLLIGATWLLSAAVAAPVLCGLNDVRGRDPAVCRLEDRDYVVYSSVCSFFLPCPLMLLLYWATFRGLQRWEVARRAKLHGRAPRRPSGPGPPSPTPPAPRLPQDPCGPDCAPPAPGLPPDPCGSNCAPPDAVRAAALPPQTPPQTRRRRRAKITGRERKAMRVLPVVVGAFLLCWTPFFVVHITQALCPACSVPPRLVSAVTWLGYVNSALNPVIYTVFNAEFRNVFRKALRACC
Protocol: (§1) Radioligand binding assays for dopamine receptor family (D1, D2 and D3) were performed according to the protocols provided by the manufacturer of receptor membranes (BioSignal Packard Inc., Montreal, Canada). The radioligands used were [^3H] spiperone (for hD2L and hD3 receptors, 1 nM) and [^3H] YM-09151-2 (hD4.2 receptor, 0.06 nM). Briefly, the buffer used in the D1, D2 and D3 receptor binding assay was 50 mM Tris-HCl (pH 7.4), containing 10 mM MgCl2 and 1 mM EDTA, or 50 mM Tris-HCl (pH 7.4), containing 5 mM MgCl2, 5 mM EDTA, 5 mM KCl, 1.5 mM CaCl2 and 120 mM NaCl. For [^3H] YM-09151-2 receptor binding assays, 50 mM Tris-HCl (pH 7.4) containing 5 mM MgCl2, 5 mM EDTA, 5 mM KCl and 1.5 mM CaCl2, was used as a buffer. Nonspecific binding was determined with haloperidol (10 μM) for D2 and D3 and clozapine (10 μM) for D4 receptors.
(§2) Competition binding studies were carried out with 7-8 concentrations of the test compound run in duplicate tubes, and isotherms from three assays were calculated by computerized nonlinear regression analysis (GraphPad Prism Program, San Diego, […]) to yield median inhibitory concentration (IC50) values.

[3] = target: D3 (hD3 receptor) (Homo sapiens, UniProt P35462); experiment: Radioligand binding assay, dopamine D3
[4] = target: T2, D2 (hD2L receptor) (Homo sapiens, UniProt P14416); experiment: Radioligand binding assay, dopamine D2; settings: [3H] spiperone 1 nM; read-out: Binding affinity IC50 D2
T2 construct: purchased BioSignal Packard Inc., Montreal, Canada
Protocol: as §1, §2

[5] = target: human serotonin 5-HT6 receptor (Homo sapiens, UniProt P50406); experiment: [3H]LSD binding assay for cloned 5-HT6 receptors
[6] = target: 5-HT2a (human recombinant receptor, CHO-K1) (Homo sapiens, UniProt P28223); experiment: Radioligand binding assay, 5-HT2a
[7] = target: T3, 5-HT1a (human recombinant receptor, CHO-K1) (Homo sapiens, UniProt P08908); experiment: Radioligand binding assay, 5-HT1a
T3 sequence (P08908 1-422): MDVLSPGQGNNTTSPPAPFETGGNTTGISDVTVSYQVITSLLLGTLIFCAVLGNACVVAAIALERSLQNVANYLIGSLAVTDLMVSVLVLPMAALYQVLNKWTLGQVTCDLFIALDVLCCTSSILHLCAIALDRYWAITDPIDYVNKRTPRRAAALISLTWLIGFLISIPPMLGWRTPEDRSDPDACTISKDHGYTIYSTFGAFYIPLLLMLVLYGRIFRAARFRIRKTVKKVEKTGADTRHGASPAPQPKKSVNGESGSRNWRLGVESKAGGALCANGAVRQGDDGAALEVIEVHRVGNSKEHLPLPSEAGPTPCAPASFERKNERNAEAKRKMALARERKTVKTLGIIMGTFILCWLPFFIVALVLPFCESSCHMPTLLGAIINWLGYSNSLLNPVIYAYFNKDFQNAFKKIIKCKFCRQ

[8] = target: T4, 5-HT2c (human recombinant receptor, CHO-K1) (Homo sapiens, UniProt P28335); experiment: Radioligand binding assay, 5-HT2c
T4 sequence (P28335 33-458): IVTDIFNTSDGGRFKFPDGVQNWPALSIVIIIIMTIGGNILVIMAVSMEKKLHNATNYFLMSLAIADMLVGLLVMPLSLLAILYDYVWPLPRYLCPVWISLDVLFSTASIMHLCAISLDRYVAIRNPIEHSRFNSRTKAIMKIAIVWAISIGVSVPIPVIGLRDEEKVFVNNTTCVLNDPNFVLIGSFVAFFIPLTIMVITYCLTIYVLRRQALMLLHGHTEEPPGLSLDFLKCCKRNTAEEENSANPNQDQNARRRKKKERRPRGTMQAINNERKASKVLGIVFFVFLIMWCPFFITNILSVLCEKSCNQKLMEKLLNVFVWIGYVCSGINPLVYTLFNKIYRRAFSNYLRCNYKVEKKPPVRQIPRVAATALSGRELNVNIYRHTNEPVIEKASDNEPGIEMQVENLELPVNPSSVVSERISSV

Chain of 5-HT7 (human recombinant receptor, CHO-K1) (P34969 whole entry): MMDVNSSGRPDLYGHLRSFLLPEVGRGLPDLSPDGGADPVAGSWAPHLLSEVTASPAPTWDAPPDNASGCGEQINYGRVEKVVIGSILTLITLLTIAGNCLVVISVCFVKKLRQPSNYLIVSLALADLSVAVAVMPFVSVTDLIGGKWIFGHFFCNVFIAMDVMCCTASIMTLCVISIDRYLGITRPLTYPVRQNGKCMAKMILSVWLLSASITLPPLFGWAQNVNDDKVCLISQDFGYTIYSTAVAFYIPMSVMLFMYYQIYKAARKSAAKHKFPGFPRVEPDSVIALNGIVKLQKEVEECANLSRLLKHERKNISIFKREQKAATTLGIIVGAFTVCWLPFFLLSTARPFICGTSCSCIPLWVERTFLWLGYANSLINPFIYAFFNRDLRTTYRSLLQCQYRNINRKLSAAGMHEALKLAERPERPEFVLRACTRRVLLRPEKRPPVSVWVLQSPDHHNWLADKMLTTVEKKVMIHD
Chain of D3 (hD3 receptor) (P35462 whole entry): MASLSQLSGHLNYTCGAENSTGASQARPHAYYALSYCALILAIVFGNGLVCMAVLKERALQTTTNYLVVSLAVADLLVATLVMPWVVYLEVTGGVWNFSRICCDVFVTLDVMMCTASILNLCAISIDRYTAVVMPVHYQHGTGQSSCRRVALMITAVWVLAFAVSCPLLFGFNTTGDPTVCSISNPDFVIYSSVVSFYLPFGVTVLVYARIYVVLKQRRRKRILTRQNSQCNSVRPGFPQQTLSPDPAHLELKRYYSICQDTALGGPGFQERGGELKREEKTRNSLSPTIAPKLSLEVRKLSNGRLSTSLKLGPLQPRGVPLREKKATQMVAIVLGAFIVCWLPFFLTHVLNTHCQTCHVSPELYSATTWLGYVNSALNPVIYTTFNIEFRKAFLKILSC
Chain of human serotonin 5-HT6 receptor (P50406 whole entry): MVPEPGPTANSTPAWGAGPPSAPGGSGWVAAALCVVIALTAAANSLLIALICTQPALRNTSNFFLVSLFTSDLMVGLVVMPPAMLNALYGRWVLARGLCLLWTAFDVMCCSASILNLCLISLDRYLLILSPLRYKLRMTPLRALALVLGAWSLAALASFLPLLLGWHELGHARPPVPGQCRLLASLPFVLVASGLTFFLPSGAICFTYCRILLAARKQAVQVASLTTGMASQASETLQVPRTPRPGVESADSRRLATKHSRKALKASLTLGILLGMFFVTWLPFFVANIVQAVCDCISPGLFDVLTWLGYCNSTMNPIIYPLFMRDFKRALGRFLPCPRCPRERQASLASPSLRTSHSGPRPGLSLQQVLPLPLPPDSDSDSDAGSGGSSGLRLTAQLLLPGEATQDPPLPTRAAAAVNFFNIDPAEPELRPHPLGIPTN
Chain of 5-HT2a (human recombinant receptor, CHO-K1) (P28223 whole entry): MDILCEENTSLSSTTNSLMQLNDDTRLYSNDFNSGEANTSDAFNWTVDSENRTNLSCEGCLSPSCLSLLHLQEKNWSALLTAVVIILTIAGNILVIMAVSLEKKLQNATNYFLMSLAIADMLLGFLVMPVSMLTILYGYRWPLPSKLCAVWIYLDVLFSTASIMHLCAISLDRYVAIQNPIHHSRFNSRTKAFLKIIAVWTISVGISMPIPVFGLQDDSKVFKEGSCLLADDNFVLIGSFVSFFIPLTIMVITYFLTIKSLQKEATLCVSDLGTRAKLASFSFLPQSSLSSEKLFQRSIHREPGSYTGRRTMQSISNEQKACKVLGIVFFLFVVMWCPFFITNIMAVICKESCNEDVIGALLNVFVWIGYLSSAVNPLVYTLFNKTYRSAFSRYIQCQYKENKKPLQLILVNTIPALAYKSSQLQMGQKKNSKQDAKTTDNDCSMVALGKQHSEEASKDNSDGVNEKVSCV
T2 sequence (P14416 whole entry): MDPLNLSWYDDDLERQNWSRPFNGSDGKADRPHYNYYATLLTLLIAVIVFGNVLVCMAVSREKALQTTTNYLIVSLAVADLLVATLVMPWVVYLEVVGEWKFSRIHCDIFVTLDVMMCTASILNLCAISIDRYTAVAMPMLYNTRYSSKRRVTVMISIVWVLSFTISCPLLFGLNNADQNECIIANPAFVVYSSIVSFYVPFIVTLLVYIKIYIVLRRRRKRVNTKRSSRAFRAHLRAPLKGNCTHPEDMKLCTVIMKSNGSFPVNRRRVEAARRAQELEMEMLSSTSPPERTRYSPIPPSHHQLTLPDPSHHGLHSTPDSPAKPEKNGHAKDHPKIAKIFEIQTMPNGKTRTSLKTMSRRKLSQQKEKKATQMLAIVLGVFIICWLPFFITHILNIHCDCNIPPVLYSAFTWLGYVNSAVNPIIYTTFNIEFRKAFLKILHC

SMILES	IC50 [1] [nM]	IC50 [2] [nM]	IC50 [3] [nM]	melting point [°C]	IC50 [4] [nM]	IC50 [5] [nM]	IC50 [6] [nM]	IC50 [7] [nM]	IC50 [8] [nM]
CCCCCCCCn1c(=O)c2c(N3CCN(C)CC3)cc(Cl)cc2n(Cc2ccccc2)c1=O [Example 7, 1-benzyl-7-chloro-5-(4-methyl-piperazin-1-yl)-3-octyl-1H-quinazoline-2,4-dione]	2560	> 10000	606	78 to 80	2760	1.5	1140	2160	1710
CN1CCN(c2cc(Cl)cc3c2c(=O)n(Cc2ccccc2F)c(=O)n3Cc2ccccc2)CC1 [Example 11, 1-benzyl-7-chloro-3-(2-fluoro-benzyl)-5-(4-methyl-piperazin-1-yl)-1H-quinazoline-2,4-dione]	4840	> 10000	2660	147 to 149	> 10000	1.2	463	1510	176
CCCn1c(=O)c2c(N3CCN(C)CC3)cc(Cl)cc2n(Cc2ccccc2)c1=O [Example 3, 1-benzyl-7-chloro-5-(4-methyl-piperazin-1-yl)-3-propyl-1H-quinazoline-2,4-dione]	> 10000	> 10000	2110	120 to 121	> 10000	2	718	> 10000	3760
Cc1ccc(Cn2c(=O)c3c(N4CCN(C)CC4)cc(Cl)cc3n(Cc3ccccc3)c2=O)cc1 [Example 24, 1-benzyl-7-chloro-3-(4-methyl-benzyl)-5-(4-methyl-piperazin-1-yl)-1H-quinazoline-2,4-dione]	> 10000	> 10000	435	92 to 97	> 10000	2	733	3210	599
CN1CCN(c2cc(Br)cc3c2c(=O)n(Cc2ccccc2Cl)c(=O)n3Cc2ccccc2)CC1 [Example 55, 1-benzyl-7-bromo-3-(2-chloro-benzyl)-5-(4-methyl-piperazin-1-yl)-1H-quinazoline-2,4-dione]	5140	> 10000	1440	104 to 108	> 10000	1.5	130	2720	252
CN1CCN(c2cc(Cl)cc3c2c(=O)n(Cc2cccc(I)c2)c(=O)n3Cc2ccccc2)CC1 [Example 20, 1-benzyl-7-chloro-3-(3-iodo-benzyl)-5-(4-methyl-piperazin-1-yl)-1H-quinazoline-2,4-dione]	1920	> 10000	615	182 to 184	> 10000	1.6	912	3530	1050
COc1ccccc1Cn1c(=O)c2c(N3CCN(C)CC3)cc(Cl)cc2n(Cc2ccccc2)c1=O [Example 25, 1-benzyl-7-chloro-3-(2-methoxy-benzyl)-5-(4-methyl-piperazin-1-yl)-1H-quinazoline-2,4-dione]	> 10000	> 10000	1330	91 to 96	> 10000	1.9	916	7080	925
CN1CCN(c2cc(Cl)cc3c2c(=O)n(Cc2cccc(Cl)c2)c(=O)n3Cc2ccccc2)CC1 [Example 18, 1-benzyl-7-chloro-3-(3-chloro-benzyl)-5-(4-methyl-piperazin-1-yl)-1H-quinazoline-2,4-dione]	1880	> 10000	339	165 to 169	7320	2.1	1380	1780	748
Cc1ccccc1Cn1c(=O)c2c(N3CCN(C)CC3)cc(Cl)cc2n(Cc2ccccc2)c1=O [Example 22, 1-benzyl-7-chloro-3-(2-methyl-benzyl)-5-(4-methyl-piperazin-1-yl)-1H-quinazoline-2,4-dione]	3970	> 10000	1540	92 to 95	> 10000	2.1	663	5780	216
CN1CCN(c2cc(Br)cc3c2c(=O)n(Cc2ccccc2)c(=O)n3Cc2ccccc2)CC1 [Example 54, 1,3-dibenzyl-7-bromo-5-(4-methyl-piperazin-1-yl)-1H-quinazoline-2,4-dione]	> 10000	> 10000	554	80 to 84	> 10000	2.3	376	5010	646
CN1CCN(c2cc(Cl)cc3c2c(=O)n(Cc2ccc(Cl)cc2)c(=O)n3Cc2ccccc2)CC1 [Example 19, 1-benzyl-7-chloro-3-(4-chloro-benzyl)-5-(4-methyl-piperazin-1-yl)-1H-quinazoline-2,4-dione]	2210	> 10000	1010	92 to 97	7740	3.1	1100	3060	321
Cc1ccc(Cn2c(=O)c3c(N4CCN(C)CC4)cc(Cl)cc3n(Cc3ccccc3)c2=O)o1 [Example 47, 1-benzyl-7-chloro-3-(5-methyl-furan-2-ylmethyl)-5-(4-methyl-piperazin-1-yl)-1H-quinazoline-2,4-dione]	8740	> 10000	2810	132 to 136	> 10000	1.4	830	1140	465
O=c1c2c(N3CCNCC3)cc(Cl)cc2n(Cc2ccccc2)c(=O)n1Cc1ccccc1Cl [Example 59, 1-benzyl-7-chloro-3-(2-chloro-benzyl)-5-piperazin-1-yl-1H-quinazoline-2,4-dione]	7320	> 10000	381	120 to 125	> 10000	1.7	132	2160	198
